Measurements from ChEMBL document CHEMBL1139047, “Design and synthesis of a novel class of furan-based molecules as potential 20S proteasome inhibitors” (Bioorg Med Chem Lett, 2007).

Assays:
[1] = Inhibition of chymotrypsin-like activity of 20S proteasome; type: subcellular, Homo sapiens
[2] = Inhibition of trypsin-like activity of 20S proteasome; type: subcellular, Homo sapiens
[3] = Inhibition of peptidyl-glutamyl peptide hydrolase activity of 20S proteasome; type: subcellular, Homo sapiens
HepG2 = assay: Antiproliferative activity against human HepG2 cells; type: functional, cell-based
HL-60 = assay: Antiproliferative activity against human HL60 cells; type: functional, cell-based

| IC50 [1] [µM] | SMILES | also measured |
| --- | --- | --- |
| > 100 | CC[C@@H](C)[C@H](NC(=O)[C@H](NCc1ccccc1)[C@H](O)[C@H](Cc1ccccc1)NC(=O)OC(C)(C)C)C(=O)c1ccco1 | – |
| > 100 | CC[C@H](C)[C@H](NC(=O)[C@@H](NC(=O)[C@H](Cc1ccccc1)NC(=O)OC(C)(C)C)C(C)C)C(=O)c1ccco1 | – |
| > 100 | CC[C@@H](C)[C@H](NC(=O)[C@H](Nc1ccccc1)[C@H](O)[C@H](Cc1ccccc1)NC(=O)OC(C)(C)C)C(=O)c1ccco1 | – |
| 7.85 | CC(C)C[C@H](NC(=O)[C@H](Cc1ccccc1)NC(=O)[C@H](Cc1ccccc1)NC(=O)OC(C)(C)C)C(=O)c1ccco1 | IC50 [2]: > 100 µM; IC50 [3]: > 100 µM; IC50 (HepG2): 34.2 µM; IC50 (HL-60): 37.1 µM |
| > 100 | CC(C)[C@H](NC(=O)[C@H](Nc1ccccc1)[C@H](O)[C@H](Cc1ccccc1)NC(=O)OC(C)(C)C)C(=O)c1ccco1 | – |
| > 100 | CC(C)[C@H](NC(=O)[C@H](Cc1ccccc1)NC(=O)[C@H](Cc1ccccc1)NC(=O)OC(C)(C)C)C(=O)c1ccco1 | – |
| > 100 | CC(C)C[C@H](NC(=O)[C@@H](NC(=O)[C@H](Cc1ccccc1)NC(=O)OC(C)(C)C)C(C)C)C(=O)c1ccco1 | – |
| > 100 | CC(C)[C@H](NC(=O)[C@H](Cc1ccccc1)NC(=O)OC(C)(C)C)C(=O)N[C@H](C(=O)c1ccco1)C(C)C | – |
| > 100 | CC(C)C[C@H](NC(=O)[C@H](Cc1ccccc1)NC(=O)OC(C)(C)C)C(=O)N[C@@H](CC(C)C)C(=O)c1ccco1 | – |
| > 100 | CC[C@H](C)[C@H](NC(=O)[C@H](CC(C)C)NC(=O)[C@H](Cc1ccccc1)NC(=O)OC(C)(C)C)C(=O)c1ccco1 | – |
| > 100 | CC(C)C[C@H](NC(=O)[C@H](NCc1ccccc1)[C@H](O)[C@H](Cc1ccccc1)NC(=O)OC(C)(C)C)C(=O)c1ccco1 | – |
| > 100 | CC[C@H](C)[C@H](NC(=O)[C@H](Cc1ccccc1)NC(=O)[C@H](Cc1ccccc1)NC(=O)OC(C)(C)C)C(=O)c1ccco1 | – |
| > 100 | CC(C)[C@H](NC(=O)[C@H](NCc1ccccc1)[C@H](O)[C@H](Cc1ccccc1)NC(=O)OC(C)(C)C)C(=O)c1ccco1 | – |
| > 100 | CC(C)C[C@H](NC(=O)[C@H](Nc1ccccc1)[C@H](O)[C@H](Cc1ccccc1)NC(=O)OC(C)(C)C)C(=O)c1ccco1 | – |
| > 100 | CC(C)C[C@H](NC(=O)[C@H](Cc1ccccc1)NC(=O)OC(C)(C)C)C(=O)N[C@H](C(=O)c1ccco1)C(C)C | – |
